Test results taken from PubChem BioAssay (NCI).
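These data come from cells grown in 96-well plates and exposed to compound for 48 hours at five concentrations. At the TGI there is no net growth.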

Experiments:
Test in all cases: NCI tumour cell line growth inhibition, 48 h
[1] = test system: OVCAR-3 ovarian
[2] = test system: HL-60(TB) leukemia
[3] = test system: TK-10 renal
[4] = test system: A549 NSCLC
[5] = test system: IGROV1 ovarian
[6] = test system: HCT-15 colon
[7] = test system: M14 melanoma
[8] = test system: LOX IMVI melanoma
[9] = test system: OVCAR-4 ovarian
[10] = test system: CAKI-1 renal
[11] = test system: SF-295 CNS

| SMILES | TGI [1] | TGI [2] | TGI [3] | TGI [4] | TGI [5] | TGI [6] | TGI [7] | TGI [8] | TGI [9] | TGI [10] | TGI [11] |
| --- | --- | --- | --- | --- | --- | --- | --- | --- | --- | --- | --- |
| Cc1ccc(-c2cn3c(nc4ccccc43)c(/C=C/c3ccco3)n2)cc1 | > 100 µM | > 100 µM | > 100 µM | > 100 µM | > 100 µM | > 100 µM | > 100 µM | > 100 µM | > 100 µM |  |  |
| CN(CCc1ccccn1)c1ccc2c(c1)C(=O)c1ccccc1-2 | > 100 µM |  | > 100 µM | > 100 µM | > 100 µM | > 100 µM | > 100 µM | > 100 µM | > 100 µM | > 100 µM | > 100 µM |
| O=C1c2c(Br)sc(Br)c2[C@@H](O)[C@H]1O | 6.25 µM | 28.6 µM | > 100 µM | 45 µM | 35.7 µM | 30.1 µM | 26.5 µM | 34.1 µM | 29.5 µM | 33.7 µM | 35.1 µM |
| COc1ccc(N2C(=O)C(=O)C3(CCCCC3)C2=O)c2ccccc12 |  | > 10 µM | > 10 µM | > 10 µM | > 10 µM | > 10 µM | > 10 µM | > 10 µM | > 10 µM | > 10 µM | > 10 µM |
| CCCCCCCCCCCCCCCc1nc(=S)[nH][nH]1 | > 100 µM | > 100 µM | > 100 µM |  |  | > 100 µM | > 100 µM | > 100 µM | > 100 µM |  |  |
| COc1ccc(CCn2cncn2)cc1 | > 100 µM | > 100 µM | > 100 µM | > 100 µM | > 100 µM | > 100 µM | > 100 µM |  | > 100 µM |  | > 100 µM |
| COc1ccc(C2C3CCc4ccccc4C3=NN2S(=O)(=O)c2cccc(C(=O)O)c2OC)cc1 (stereo unspecified) | 68.6 µM | > 100 µM | > 100 µM | > 100 µM | > 100 µM | 0.778 µM | > 100 µM | > 100 µM | > 100 µM | > 100 µM | 35.1 µM |
| CN1CCC(C(O)(c2ccccc2)c2ccc(Br)cc2)CC1 (stereo unspecified) | > 100 µM | 66.5 µM | 98.7 µM | > 100 µM | > 100 µM | > 100 µM | 28.7 µM | 32.9 µM | > 100 µM | > 100 µM | 45.7 µM |
| N#C/C(=C(/O)CCl)c1nc2ccccc2o1 | 20.3 µM | 7.04 µM | > 100 µM | 34.8 µM | 4.09 µM | 4.46 µM | 21 µM | 4.15 µM | 3.97 µM | 22.6 µM | 6.74 µM |
| COC(=O)c1c(O)ccc2c1c1cc3ccccc3c(O)c1n2CCc1ccc(OC)c(OC)c1 | > 100 µM | > 100 µM | > 100 µM | > 100 µM | > 100 µM | > 100 µM | > 100 µM |  | > 100 µM | > 100 µM | > 100 µM |
| O=P(NCCCO)(OCc1ccccc1)N(CCCl)CCCl (stereo unspecified) | > 100 µM | > 100 µM |  | > 100 µM | > 100 µM | > 100 µM |  | > 100 µM | > 100 µM | > 100 µM | > 100 µM |
| C/C(C=O)=C/[C@@]1(C)O[C@@H](C)[C@@](C)(O)[C@@H]1O | > 100 µM | > 100 µM | > 100 µM | > 100 µM | > 100 µM | 51.5 µM | > 100 µM | > 100 µM | > 100 µM | 37.1 µM | > 100 µM |
| CC(C)CC(N)C(=O)NC(C(=O)NC(CCCNC(=N)N)C(=O)NC(CS)C(=O)NC1CSCC(C(=O)NC(Cc2ccccc2)C(=O)NC(C(=O)NC(CCCNC(=N)N)C(=O)O)C(C)C)NC(=O)C2CCCN2C(=O)C(CCCCN)NC(=O)C2CCCN2C(=O)C2CCCN2C(=O)C(Cc2ccc(O)cc2)NC(=O)C(CO)NC(=O)C(CCCCN)NC(=O)C(C(C)O)NC(=O)C(Cc2c[nH]c3ccccc23)NC1=O)C(C)C (stereo unspecified) | > 25 µM | > 25 µM | > 25 µM | > 25 µM | > 25 µM | > 25 µM | > 25 µM | > 25 µM | > 25 µM | > 25 µM | > 25 µM |
| CCOc1nc2c(N3CCCC3)nc(N3CCNCC3)nc2nc1NCc1ccccc1 | 2.32 µM | 2.99 µM | 5.58 µM | 4.26 µM | 2.64 µM | 3.45 µM | 2.98 µM | 2.97 µM | 6.05 µM | 6.71 µM | 3.37 µM |
